Consider 21 compounds from article PMC8843131, “Inhibition studies of bacterial α-carbonic anhydrases with phenols” (Journal of Enzyme Inhibition and Medicinal Chemistry, 2022).

The structures appear in SMILES notation. Like-named read-outs stand apart in the source and are kept apart here.

The target in one test is T1, NgCAα (Neisseria gonorrhoeae, UniProt Q50940).
T1 construct: gene cah; recombinant, obtained in-house as described earlier
T1 sequence (Q50940 27-252): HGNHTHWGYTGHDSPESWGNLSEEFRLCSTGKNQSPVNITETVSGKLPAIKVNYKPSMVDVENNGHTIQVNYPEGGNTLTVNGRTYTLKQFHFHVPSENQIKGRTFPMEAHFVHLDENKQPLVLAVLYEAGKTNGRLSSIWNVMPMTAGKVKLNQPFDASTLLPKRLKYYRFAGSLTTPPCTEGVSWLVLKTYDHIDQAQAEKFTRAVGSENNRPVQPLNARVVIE
Description: stopped-flow CO2 hydrase assay. The format is biochemical.

The next test addresses T2, VchCAα (Vibrio cholerae, UniProt Q9KMP6).
T2 construct: gene VC_A0274
The experiment in a line: stopped-flow CO2 hydrase assay. Particulars: read-out: KI (μM)^a / VchCAα; CO2 substrate 1.7-17 mM, 10 mM HEPES pH 7.4, 10 mM NaClO4, 15 min preincubation. The format is biochemical.

T2 sequence (Q9KMP6 21-239 limits assumed): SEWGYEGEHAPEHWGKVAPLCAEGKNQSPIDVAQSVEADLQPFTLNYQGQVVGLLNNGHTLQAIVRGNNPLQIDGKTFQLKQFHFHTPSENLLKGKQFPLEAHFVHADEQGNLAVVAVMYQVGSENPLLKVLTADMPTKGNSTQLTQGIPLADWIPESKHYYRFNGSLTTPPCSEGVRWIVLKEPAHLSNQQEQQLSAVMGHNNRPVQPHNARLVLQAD

As for `O=C(O)c1ccc(O)c(O)c1` [compound 18, 3,4-dihydroxybenzoic acid], the Ki on NgCAα came to 9.3 µM; on VchCAα, 13.8 µM.

With `O=C(O)c1c(O)cccc1O` [compound 19, 19], the Ki at NgCAα turned out to be 33.1 µM; at VchCAα, 49.6 µM.

Turning to `Oc1ccccc1` [compound 1, phenol], the Ki came out at 0.9 µM at NgCAα and 0.8 µM on VchCAα.

As for `Nc1cc(O)ccc1Cl` [compound 13, 3-amino-4-chlorophenol], the Ki was 0.8 µM on NgCAα and 0.7 µM on VchCAα.

Regarding `O=C(O)c1cc(O)ccc1O` [compound 20, 20], the Ki on NgCAα was found to be 16.3 µM; on VchCAα, 7.3 µM.

`O=C(O)c1ccccc1O` [compound 10, salicylic acid]: the Ki is 43.8 µM on NgCAα and 39.1 µM on VchCAα.

In the case of `Nc1ccc(O)c(Cl)c1` [compound 14, 14], the Ki on NgCAα came to 71.5 µM; at VchCAα, 81.6 µM.

For the compound `Nc1cccc(O)c1` [compound 6, 3-aminophenol], the Ki on NgCAα was 1.7 µM; on VchCAα, 3.9 µM.

For the compound `Oc1ccccc1O` [compound 2, 2], the Ki was determined as 5.3 µM on NgCAα and 20.3 µM at VchCAα.

In the case of `Oc1ccc(F)cc1F` [compound 15, 15], the Ki on NgCAα turned out to be 35.9 µM; on VchCAα it was 36.6 µM.

As to `O=C(O)/C=C/c1ccc(O)cc1` [compound 21, 21], the Ki on NgCAα was found to be 10 µM; at VchCAα, 40.5 µM.

In the case of `Oc1cccc(O)c1` [compound 3, 3], the results for the Ki on NgCAα and at VchCAα were 2.2 µM and 8.6 µM, respectively.

In the case of `O=C(O)c1ccc(O)cc1` [compound 11, 4-hydroxy-benzoic acid], the figures for the Ki at NgCAα and on VchCAα were 8.7 µM and 3.5 µM, respectively.

For `CC(=O)Nc1ccc(O)cc1` [compound 8, paracetamol], the results for the Ki on NgCAα and at VchCAα were 1.5 µM and 7 µM, respectively.

Regarding `N#Cc1ccc(O)cc1` [compound 9, 4-cyanophenol], the Ki at NgCAα (CO2 substrate 1.7-17 mM, 10 mM HEPES pH 7.4, 10 mM NaClO4, 15 min preincubation) is 24.2 µM; on VchCAα, 17.2 µM.

On to `Oc1ccc(O)cc1` [compound 4, 4], for which the results for the Ki on NgCAα and at VchCAα were 4.7 µM and 8.4 µM, respectively.

In the case of `OCc1ccc(O)cc1` [compound 12, 4-hydroxy-benzylalcohol], the Ki at NgCAα was 0.6 µM; on VchCAα, 1.2 µM.

Consider `O=C(O)/C=C/c1ccc(O)c(O)c1` [compound 22, caffeic acid], for which the Ki at NgCAα is 76 µM; at VchCAα, 78.1 µM.

Turning to `Nc1ccc(O)cc1` [compound 7, 7], the Ki came to 6 µM at NgCAα and 10.6 µM at VchCAα.

On to `Oc1ccc(O)c(O)c1` [compound 5, 5], for which the figures for the Ki on NgCAα and on VchCAα were 3.9 µM and 9.4 µM, respectively.

As to `Oc1cc(F)cc(F)c1` [compound 16, 3,5-difluorophenol], the Ki on NgCAα is 3.7 µM; on VchCAα, 4.9 µM.
